# Measured values: PubChem BioAssay (NCI)
#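 Where inhibition never reached the appropriate level, the endpoint shown equals the highest concentration tested. Otherwise, values were interpolated linearly from a five-concentration, 48-hour dose response in 96-well plates. At the TGI there is no net growth.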
# Columns and labels:
# Assay in all cases: NCI anticancer screen, dose series, 48 h
# [1] = system: NCI-H460 lung
# [2] = system: KM12 colon
# [3] = system: DU-145 prostate
# [4] = system: SF-268 CNS
# [5] = system: COLO 205 colon
# [6] = system: SK-MEL-28 melanoma
# [7] = system: NCI-H226 lung
# [8] = system: HL-60(TB) leukemia
# [9] = system: MOLT-4 leukemia
# [10] = system: EKVX NSCLC
# [11] = system: NCI-H23 lung
# [12] = system: MDA-N
# [13] = system: M14 melanoma
# [14] = system: MALME-3M melanoma
# [15] = system: MCF7 breast
# [16] = system: CCRF-CEM leukemia
# [17] = system: UACC-257 melanoma
# [18] = system: ACHN renal
# [19] = system: OVCAR-8 ovarian
# [20] = system: T-47D breast
# [21] = system: HOP-62 NSCLC
# [22] = system: TK-10 renal
# [23] = system: NCI/ADR-RES ovarian
# [24] = system: A549 NSCLC
# [25] = system: SF-295 CNS
# [26] = system: LOX IMVI melanoma
# [27] = system: NCI-H522 lung
# [28] = system: PC-3 prostate
# [29] = system: SW-620 colon
# [30] = system: HT29 colon
# [31] = system: OVCAR-3 ovarian
# [32] = system: HOP-92 NSCLC
# [33] = system: SR leukemia
# [34] = system: CAKI-1 renal
# [35] = system: SNB-75 CNS
# [36] = system: SF-539 CNS
# [37] = system: OVCAR-5 ovarian
# [38] = system: OVCAR-4 ovarian
# [39] = system: MDA-MB-231 breast
# [40] = system: IGROV1 ovarian
# [41] = system: U251 CNS
# [42] = system: UO-31 renal
# [43] = system: 786-0 renal
# [44] = system: HCT-15 colon
# [45] = system: MDA-MB-435
# [46] = system: SK-OV-3 ovarian
# [47] = system: A498 renal
# [48] = system: HCC-2998 colon
# [49] = system: HCT-116 colon
# [50] = system: SN12C renal
# [51] = system: HS 578T breast
# [52] = system: SNB-19 CNS
# [53] = system: RXF 393 renal
# [54] = system: UACC-62 melanoma
# [55] = system: RPMI-8226 leukemia
# [56] = system: BT-549 breast
# [57] = system: SK-MEL-2 melanoma
# [58] = system: SK-MEL-5 melanoma
# [59] = system: K-562 leukemia
compound,measurement,setting,value
Nc1nc(Cl)nc2c1ncn2C1CCC(COP(=O)(O)OP(=O)(O)OP(=O)(O)O)O1 (stereo not given),TGI,[1],> 100 µM
same,TGI,[2],> 100 µM
same,TGI,[3],69.8 µM
same,TGI,[4],> 100 µM
same,TGI,[5],41.7 µM
same,TGI,[6],54.1 µM
same,TGI,[7],> 100 µM
same,TGI,[8],63.7 µM
same,TGI,[9],> 100 µM
same,TGI,[10],> 100 µM
same,TGI,[11],41.6 µM
same,TGI,[12],> 100 µM
same,TGI,[13],36.7 µM
same,TGI,[14],> 100 µM
same,TGI,[15],> 100 µM
same,TGI,[16],> 100 µM
same,TGI,[17],> 100 µM
same,TGI,[18],> 100 µM
same,TGI,[19],51.9 µM
same,TGI,[20],> 100 µM
same,TGI,[21],51.1 µM
same,TGI,[22],> 100 µM
same,TGI,[23],55.8 µM
same,TGI,[24],78.8 µM
same,TGI,[25],58.4 µM
same,TGI,[26],78.5 µM
same,TGI,[27],> 100 µM
same,TGI,[28],64.3 µM
same,TGI,[29],> 100 µM
same,TGI,[30],90.9 µM
same,TGI,[31],> 100 µM
same,TGI,[32],66.6 µM
same,TGI,[33],> 100 µM
same,TGI,[34],> 100 µM
same,TGI,[35],94.2 µM
same,TGI,[36],> 100 µM
same,TGI,[37],93.3 µM
same,TGI,[38],77.8 µM
same,TGI,[39],> 100 µM
same,TGI,[40],> 100 µM
same,TGI,[41],> 100 µM
same,TGI,[42],48.2 µM
same,TGI,[43],> 100 µM
same,TGI,[44],79.3 µM
same,TGI,[45],58.1 µM
same,TGI,[46],> 100 µM
same,TGI,[47],> 100 µM
same,TGI,[48],86.1 µM
same,TGI,[49],> 100 µM
same,TGI,[50],> 100 µM
same,TGI,[51],> 100 µM
same,TGI,[52],> 100 µM
same,TGI,[53],75 µM
same,TGI,[54],47.9 µM
Cc1cccc2c(N)c3cccc(C(=O)NCCN4CCOCC4)c3nc12,TGI,[1],14 µM
same,TGI,[55],> 60.4 µM
same,TGI,[2],5 µM
same,TGI,[3],11.6 µM
same,TGI,[4],1.19 µM
same,TGI,[5],2.49 µM
same,TGI,[6],6.29 µM
same,TGI,[56],8.54 µM
same,TGI,[8],1.2 µM
same,TGI,[9],1.71 µM
same,TGI,[10],5.66 µM
same,TGI,[11],2.17 µM
same,TGI,[12],2.91 µM
same,TGI,[13],7.33 µM
same,TGI,[57],2.61 µM
same,TGI,[14],1.31 µM
same,TGI,[15],> 32.1 µM
same,TGI,[17],7.81 µM
same,TGI,[18],13.1 µM
same,TGI,[21],7.55 µM
same,TGI,[22],18.6 µM
same,TGI,[23],42.8 µM
same,TGI,[24],7.92 µM
same,TGI,[25],10.9 µM
same,TGI,[26],4.28 µM
same,TGI,[27],1.86 µM
same,TGI,[28],7.19 µM
same,TGI,[29],26.1 µM
same,TGI,[30],3.99 µM
same,TGI,[31],16.9 µM
same,TGI,[32],23.2 µM
same,TGI,[34],17.3 µM
same,TGI,[35],1.32 µM
same,TGI,[36],> 100 µM
same,TGI,[37],8.7 µM
same,TGI,[38],6.69 µM
same,TGI,[39],4.55 µM
same,TGI,[58],2.46 µM
same,TGI,[40],3.4 µM
same,TGI,[41],20.5 µM
same,TGI,[42],8.26 µM
same,TGI,[43],20.5 µM
same,TGI,[44],6.39 µM
same,TGI,[45],2.12 µM
same,TGI,[46],16.9 µM
same,TGI,[47],5 µM
same,TGI,[48],> 100 µM
same,TGI,[49],24.9 µM
same,TGI,[50],7.97 µM
same,TGI,[51],0.43 µM
same,TGI,[52],3.12 µM
same,TGI,[53],2.62 µM
same,TGI,[54],3.18 µM
NN/C(=N\S(=O)(=O)c1cccc2nsnc12)Nc1ccc(Cl)cc1,TGI,[1],> 100 µM
same,TGI,[55],> 100 µM
same,TGI,[2],> 100 µM
same,TGI,[3],> 100 µM
same,TGI,[59],> 100 µM
same,TGI,[4],> 100 µM
same,TGI,[5],> 100 µM
same,TGI,[6],> 100 µM
same,TGI,[56],> 100 µM
same,TGI,[7],> 100 µM
same,TGI,[8],> 100 µM
same,TGI,[9],> 100 µM
same,TGI,[10],> 100 µM
same,TGI,[11],> 100 µM
same,TGI,[12],> 100 µM
same,TGI,[13],> 100 µM
same,TGI,[57],> 100 µM
same,TGI,[15],> 100 µM
same,TGI,[16],> 100 µM
same,TGI,[17],> 100 µM
same,TGI,[18],> 100 µM
same,TGI,[19],> 100 µM
same,TGI,[20],> 100 µM
same,TGI,[21],> 100 µM
same,TGI,[22],> 100 µM
same,TGI,[23],> 100 µM
same,TGI,[24],> 100 µM
same,TGI,[25],> 100 µM
same,TGI,[26],> 100 µM
same,TGI,[28],> 100 µM
same,TGI,[29],> 100 µM
same,TGI,[30],> 100 µM
same,TGI,[31],> 100 µM
same,TGI,[32],> 100 µM
same,TGI,[33],> 100 µM
same,TGI,[34],> 100 µM
same,TGI,[35],> 100 µM
same,TGI,[36],> 100 µM
same,TGI,[37],> 100 µM
same,TGI,[38],> 100 µM
same,TGI,[39],> 100 µM
same,TGI,[58],> 100 µM
same,TGI,[40],> 100 µM
same,TGI,[41],> 100 µM
same,TGI,[42],> 100 µM
same,TGI,[43],> 100 µM
same,TGI,[44],> 100 µM
same,TGI,[46],> 100 µM
same,TGI,[47],> 100 µM
same,TGI,[49],> 100 µM
same,TGI,[50],> 100 µM
same,TGI,[52],> 100 µM
same,TGI,[53],> 100 µM
same,TGI,[54],> 100 µM
COc1ccc(C(=O)C(CC2C(=O)CC(C)(C)C(C(=O)C(=O)Nc3c(C)cccc3C)C2=O)c2ccc(OC)cc2)cc1 (stereo not given),TGI,[1],> 100 µM
same,TGI,[2],> 100 µM
same,TGI,[3],> 100 µM
same,TGI,[4],> 100 µM
same,TGI,[5],> 100 µM
same,TGI,[6],> 100 µM
same,TGI,[56],> 100 µM
same,TGI,[7],> 100 µM
same,TGI,[8],> 100 µM
same,TGI,[9],> 100 µM
same,TGI,[10],> 100 µM
same,TGI,[11],> 100 µM
same,TGI,[12],> 100 µM
same,TGI,[13],> 100 µM
same,TGI,[57],> 100 µM
same,TGI,[15],> 100 µM
same,TGI,[16],> 100 µM
same,TGI,[17],> 100 µM
same,TGI,[18],> 100 µM
same,TGI,[19],> 100 µM
same,TGI,[21],> 100 µM
same,TGI,[22],> 100 µM
same,TGI,[23],> 100 µM
same,TGI,[24],> 100 µM
same,TGI,[25],> 100 µM
same,TGI,[26],> 100 µM
same,TGI,[27],> 100 µM
same,TGI,[28],> 100 µM
same,TGI,[29],> 100 µM
same,TGI,[30],> 100 µM
same,TGI,[31],> 100 µM
same,TGI,[32],> 100 µM
same,TGI,[33],91.9 µM
same,TGI,[34],> 100 µM
same,TGI,[35],> 100 µM
same,TGI,[36],> 100 µM
same,TGI,[37],> 100 µM
same,TGI,[38],> 100 µM
same,TGI,[39],> 100 µM
same,TGI,[58],> 100 µM
same,TGI,[40],> 100 µM
same,TGI,[41],> 100 µM
same,TGI,[42],> 100 µM
same,TGI,[43],> 100 µM
same,TGI,[44],> 100 µM
same,TGI,[45],> 100 µM
same,TGI,[46],> 100 µM
same,TGI,[48],> 100 µM
same,TGI,[49],> 100 µM
same,TGI,[50],> 100 µM
same,TGI,[51],> 100 µM
same,TGI,[52],> 100 µM
same,TGI,[53],> 100 µM
same,TGI,[54],> 100 µM
